Laboratory results: patent US7919505B2, “Xinafoate salt of a substituted 5-oxazol-2-yl-quinoline compound” (Schering Corporation, priority 2006, dated 2011)
Where a name gives a salt, the structure may show the parent alone.

Key:
[1] = Physical properties of salts of Compound A (hygroscopicity, hydrate stability); assay type: physicochemical; conditions: solid salt
[2] = Rat PK assay; assay type: in vivo, Sprague Dawley rats; conditions: Sprague Dawley, plasma, 30 mg/kg, 30 mpk po
Protocol: Using the above test procedure, the following results were obtained: • tartrate salt: monkey AUC=30 ng.h/mL at 10 mpk po • xinafoate salt: monkey AUC=0 ng.h/mL at 10 mpk po Assay Protocol for Rat PK Assay:
[…] The dose volume was 5 ml/kg dose. Plasma was collected at 0.5, 1, 2, 3, 4, and 6 hr. Blood samples were collected with heparin, and the plasma was stored with EDTA.

[3] = test system: inflammatory cells; test: Allergic Brown-Norway rat assay: inhibition of recruitment of inflammatory cells into the airways (BALF cell counts after OVA challenge); assay type: in vivo, Brown-Norway rats
Protocol: Assay Protocol for Allergic Brown-Norway Rats:
Inbred male BN rats weighing 150 to 200 g were obtained from Charles River Laboratory (Wilmington, Mass.). Prior to use, the animals were allowed food and water ad libitum. The test compounds were administered 5 h prior to antigen challenge either by oral or inhalational route, as detailed in the “delivery of test compounds” section.
Sensitization and Antigen Bronchoprovocation
The animals were divided into two main groups viz. an alum group and an antigen group. In the antigen group, animals were sensitized by an intra-peritoneal (i.p.) injection of 1 ml alum-precipitated antigen containing 20 μg of ovalbumin (OVA, grade III; Sigma chemical Co., St Louis, Mo.) and 8 mg of Al(OH)3 suspended in 0.9% saline vehicle. A booster injection of this alum-OVA mixture was given again 7 days later. Animals belonging to the alum group received injections containing alum only. Seven days after the second injection, animals were exposed to aerosolized antigen bronchoprovocation which was performed by placing the rats in an enclosed plexiglass chamber (21 liters) and exposing the rats to aerosolized OVA (1%) for 30 min. The aerosolized OVA was produced by an ultrasonic nebulizer (DeVilbiss, Somerset, Pa., USA; Model Ultra-Neb 99) at a flow rate of approximately 8 liters/min. […]

[4] = test system: rats; test: Lung function assay (forced expiratory maneuvers after ovalbumin challenge); assay type: in vivo; conditions: 5 hr before antigen challenge
Protocol: Two fasted Sprague Dawley rats were dosed orally at 10 mpk with compound in 0.4% HPMC vehicle. The dose volume was 5 ml/kg dose. Plasma was collected at 0.5, 1, 2, 3, 4, and 6 hr. Blood samples were collected with heparin, and the plasma was stored with EDTA.
Lung function was measured using a forced expiratory maneuvers technique. In this procedure, the rats were anesthetized and a tracheal catheter was inserted. The rats were placed inside a whole body plethysmograph that contained a breathing valve capable of separating inflations and deflations of the lungs. The lungs were then subject to forced inflation of the lungs to total lung capacity followed by rapid deflation to residual volume. Measurements of forced vital capacity and peak expiratory flow were used to measure the effects of antigen challenge and assess the inhibitory effects of the compound of formula I. The drug was admixed with lactose for intratracheal delivery and given directly into the trachea with a fine microsprayer 5 hr before the antigen challenge. Orally delivered compound was given in 0.4% methylcellulose vehicle 5 hr before the antigen challenge. Control animals received intratracheal lactose or methylcellulose, respectively. The antigen challenge consisted of aerosolized exposure for 30 min to 1% ovalbumin. Forced expiratory lung functions were measured 24 hr after the antigen (ovalbumin) exposure.

Row | AUC [2] [ng·h/mL] | hygroscopicity [1] | Compound | stability of crystalline forms [1] | inhibition of inflammatory cells ([3]; 0.02 mpk, intra-tracheal dosing, 5 h prior to antigen challenge, allergic BN rats) [%] | better inhibition of inflammatory cells via intra-trachea administration compared to oral administration ([3]; intra-trachea vs oral administration) [fold] | inhibition of forced vital capacity (FVC) ([4]; 0.02 mpk it (intra-tracheal)) [%] | inhibition of forced vital capacity (FVC) ([4]; 3 mpk po) [%]
1 |  |  | fumarate | unstable hydrates |  |  |  | 
2 | 350 | non-hygroscopic | CCOC(=O)[C@@H]1C[C@@H](NC(=O)C2CC2)CN1C(=O)c1nc(-c2ccc(OC)c3nc(C(F)(F)F)ccc23)oc1[C@H](C)N [xinafoate salt, xinafoate salt of 1-[[5-(1(S)-aminoethyl)-2-[8-methoxy-2-(trifluoromethyl)5-quinolyl]-4-oxazolyl]carbonyl]-4(R)-[(cyclopropyl-carbonyl)amino]-L-proline, ethyl ester] |  | 69 | 25 | 54 | 31
